Where two headings read alike, the source gives them in different places.
What was measured:
[1] = tested on: B16F10 cells; assay: Anti-tumor effect in the absence of a tumor antigen peptide; format: in vivo, mouse; conditions: Table 69, compared to ODN2006 (SEQ-49)
Description: After immunization by TRP2 peptide vaccine, B16F10 cells (ATTC) which is mouse melanoma expressing TRP2 protein was subcutaneously transplanted to evaluate anti-tumor effect. In a similar method to Example 3 A), on the next day that tetramer-positive ratio in peripheral blood of mouse vaccinated twice every 7 days was observed, B16F10 cells (1×10^5 cells/mouse) were subcutaneously transplanted in the right shoulder. The major and minor axes of the engrafted tumor were measured every 2 to 3 days, and the tumor volume was calculated by the formula: (major axis×minor axis^2)/2 Calculation method for indicators of anti-tumor effect For the adjuvant comprising ODN1826 100·(average tumor volume of adjuvant group)/(average tumor volume of ODN1826 group) For the adjuvant comprising ODN2006 100·(average tumor volume of adjuvant group)/(average tumor volume of ODN2006 group)
Antigen-specific CTL inducibility and anti-tumor effect of ODN2006 (SEQ-49) and SEQ-121 in the absence of a tumor antigen peptide were evaluated. In similar methods of A) and B) of Example 3, the effect of vaccine without a tumor antigen peptide was verified. Both of the antigen-specific CTL values of SEQ-49 and SEQ-121 were undetectable.

[2] = target: T1, human TLR9 (Homo sapiens, UniProt Q9NR96); assay: Reporter assay with HEK-Blue hTLR9 cells (TLR9 agonist activity); format: cell-based; conditions: HEK-Blue hTLR9 cells, 16 hours
T1 construct: host or cells: HEK-Blue hTLR9 cells (HEK293)
T1 sequence (Q9NR96 26-1032): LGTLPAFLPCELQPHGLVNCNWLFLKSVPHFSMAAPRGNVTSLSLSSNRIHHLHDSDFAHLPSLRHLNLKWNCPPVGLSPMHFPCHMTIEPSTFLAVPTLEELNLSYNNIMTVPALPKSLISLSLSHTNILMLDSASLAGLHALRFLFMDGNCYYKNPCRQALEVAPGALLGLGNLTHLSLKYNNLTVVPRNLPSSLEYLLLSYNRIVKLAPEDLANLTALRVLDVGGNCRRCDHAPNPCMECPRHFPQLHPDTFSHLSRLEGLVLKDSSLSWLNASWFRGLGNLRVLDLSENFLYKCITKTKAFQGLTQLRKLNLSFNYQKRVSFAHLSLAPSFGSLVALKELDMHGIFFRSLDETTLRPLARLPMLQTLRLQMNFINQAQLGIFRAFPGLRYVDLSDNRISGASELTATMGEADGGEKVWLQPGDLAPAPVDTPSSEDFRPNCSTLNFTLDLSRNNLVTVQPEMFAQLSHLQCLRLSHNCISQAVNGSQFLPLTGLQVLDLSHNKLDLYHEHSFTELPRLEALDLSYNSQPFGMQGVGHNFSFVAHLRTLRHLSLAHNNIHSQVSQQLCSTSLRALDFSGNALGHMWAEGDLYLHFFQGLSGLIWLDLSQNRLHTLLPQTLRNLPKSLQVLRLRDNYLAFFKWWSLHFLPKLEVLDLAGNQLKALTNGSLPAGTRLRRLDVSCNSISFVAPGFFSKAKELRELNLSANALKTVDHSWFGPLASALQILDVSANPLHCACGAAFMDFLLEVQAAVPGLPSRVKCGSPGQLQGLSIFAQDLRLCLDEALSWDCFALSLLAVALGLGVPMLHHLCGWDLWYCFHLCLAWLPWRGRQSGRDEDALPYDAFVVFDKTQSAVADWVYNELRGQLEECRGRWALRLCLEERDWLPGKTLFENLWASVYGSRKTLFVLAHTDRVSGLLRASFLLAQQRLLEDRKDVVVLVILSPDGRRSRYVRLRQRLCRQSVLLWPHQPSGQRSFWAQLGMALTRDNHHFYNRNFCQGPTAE
Description: HEK-Blue™ hTLR9 cells (Invivogen) used for the reporter assay were made by introducing human TLR9 gene and a reporter gene that secretory alkaline phosphatase gene bound to NF-kB-AP-1 binding region sequence in HEK293 cells, and are the cells stably expressing the both genes. 3.6×10^4 of the cells suspended in HEK-Blue™ Detection ([…]) comprising substrates against the alkaline phosphatase were seeded on the 96 well plate, and 3 nM to 30 μM of a lipid binding double-stranded oligonucleotide of the present invention, the known CpG oligonucleotides (ODN2006, SEQ-49), or adjuvant based on design in Patent Document 1, i.e., ssCpG ODN introducing a lipid ligand (SEQ-142, 143 or 144) was added. After culturing in a 37° C., 5% CO2 incubator for 16 hours, absorbency at 620 nm was measured using the culture supernatant developed a color. The result value was analyzed with TIBCO Spotfire software, and calculated the 50% effective concentration (EC50) of each oligonucleotide.

Q: Which results are given for ODN2006 [SEQ-49]?
A: Tumor inhibition rate (Day 12 after transplantation) [1]: 0.00%; EC50 ([2]; Experiment 1 (Table 28), read-out: EC50): 0.467 µM; EC50 ([2]; Experiment 1, Table 28, read-out: EC50 value): ~0.467 µM; EC50 ([2]; Experiment 2 (Table 29), read-out: EC50): 0.245 µM; EC50 ([2]; Experiment 2, Table 29, read-out: EC50 value): ~0.245 µM

Reference: US10940201B2, “Nucleic acid derivative having immunostimulatory activity” (Shionogi & Co., Ltd., priority 2015, dated 2021)
